Laboratory results taken from the supplement of paper PMC10307832.

compound: COC1=CC=C(C=C1)CN2C=CC3=C2C=C(C=C3)C(=O)NO + Cc1nc(NC(=O)N2CCC[C@H]2C(N)=O)sc1-c1ccnc(C(C)(C)C(F)(F)F)c1 [Alpelisib] (partner 2 µM); test: relative viability (nuclei count vs DMSO), 5 days (fraction); higher = more cells survive; settings: first compound 0.08 µM
In short: (§1)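 Cells from lung cancer lines were seeded into 1536-well plates and, one day later, dosed by pin tool. Treatments were either a single drug or a fixed dose of an anchor drug with five library-drug doses (not always all listed) in √10 steps. After 5 days, nuclei were stained in a one-step fixation (final 0.05% Triton X-100, 1% formaldehyde, 1 ug/ml Hoechst) and counted on 4× images, and relative viability is the treated-to-vehicle nuclei ratio, as the median of duplicate plates.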

Cell Line | relative viability
NCI-H1651 | 0.993
COR-L23 | 0.493
HCC-827 | 0.975
LCLC-103H | 0.998
RERF-LC-KJ | 0.765
NCI-H3122 | 0.613
BEN | 0.972
UMC-11 | 0.526
NCI-H2085 | 0.968
NCI-H727 | 0.525
NCI-H1793 | 0.626
201T | 0.948
NCI-H2228 | 0.764
LOU-NH91 | 0.635
NCI-H1666 | 1.07
NCI-H650 | 1.01
NCI-H1993 | 0.613
HCC-44 | 0.732
NCI-H647 | 0.981
NCI-H2126 | 0.738
NCI-H1755 | 0.819
PC-3 [JPC-3] | 1.02
NCI-H1792 | 0.663
NCI-H2087 | 1.08

same assay, conditions: first compound 0.253 µM

Cell Line | relative viability
NCI-H1651 | 1.06
COR-L23 | 0.897
HCC-827 | 0.947
LCLC-103H | 0.992
RERF-LC-KJ | 0.796
NCI-H3122 | 0.88
BEN | 1.07
UMC-11 | 0.986
LCLC-97TM1 | 0.242
NCI-H2085 | 0.981
A-427 | 1.15
NCI-H727 | 0.515
NCI-H838 | 0.981
NCI-H1793 | 0.874
201T | 1.08
NCI-H2228 | 0.659
LOU-NH91 | 0.71
NCI-H1666 | 1.04
NCI-H650 | 1.16
NCI-H1993 | 0.671
HCC-44 | 0.901
NCI-H647 | 1.23
NCI-H2126 | 0.798
NCI-H1755 | 0.964
PC-3 [JPC-3] | 1.02
NCI-H1792 | 0.765
NCI-H2087 | 1.08

same assay, conditions: first compound 0.8 µM

Cell Line | relative viability
NCI-H1651 | 0.964
COR-L23 | 0.793
HCC-827 | 1.01
LCLC-103H | 0.954
RERF-LC-KJ | 0.83
NCI-H3122 | 0.828
BEN | 1.06
UMC-11 | 0.92
LCLC-97TM1 | 0.242
NCI-H2085 | 1.1
A-427 | 1.13
NCI-H727 | 0.626
NCI-H838 | 0.91
NCI-H1793 | 0.786
201T | 1.07
NCI-H2228 | 0.773
LOU-NH91 | 0.769
NCI-H1666 | 1.01
NCI-H650 | 1.05
NCI-H1993 | 0.669
HCC-44 | 0.786
NCI-H647 | 1.16
NCI-H2126 | 0.744
NCI-H1755 | 0.913
PC-3 [JPC-3] | 1.01
NCI-H1792 | 0.744
NCI-H2087 | 1.21

same assay, conditions: first compound 2.53 µM

Cell Line | relative viability
NCI-H1651 | 0.789
COR-L23 | 0.892
HCC-827 | 0.995
LCLC-103H | 1.03
RERF-LC-KJ | 0.95
NCI-H3122 | 0.87
BEN | 0.967
UMC-11 | 1.12
LCLC-97TM1 | 0.255
NCI-H2085 | 0.969
A-427 | 1.15
NCI-H727 | 0.654
NCI-H838 | 1.03
NCI-H1793 | 0.546
201T | 1.03
NCI-H2228 | 0.893
LOU-NH91 | 0.731
NCI-H1666 | 1.04
NCI-H650 | 1.03
NCI-H1993 | 0.745
HCC-44 | 0.823
NCI-H647 | 1.21
NCI-H2126 | 0.804
NCI-H1755 | 0.995
PC-3 [JPC-3] | 1.13
NCI-H1792 | 0.741
NCI-H2087 | 1.13

same assay, conditions: first compound 8 µM

Cell Line | relative viability
NCI-H1651 | 0.723
COR-L23 | 0.551
HCC-827 | 0.969
LCLC-103H | 0.855
RERF-LC-KJ | 0.83
NCI-H3122 | 0.701
BEN | 0.929
UMC-11 | 1.05
LCLC-97TM1 | 0.233
NCI-H2085 | 1.02
A-427 | 1.06
NCI-H727 | 0.562
NCI-H838 | 0.874
NCI-H1793 | 0.728
201T | 1
NCI-H2228 | 0.741
LOU-NH91 | 0.69
NCI-H1666 | 1.36
NCI-H650 | 0.892
NCI-H1993 | 0.795
HCC-44 | 0.778
NCI-H647 | 0.954
NCI-H2126 | 0.836
NCI-H1755 | 0.928
PC-3 [JPC-3] | 1.02
NCI-H1792 | 0.617
NCI-H2087 | 0.864

compound: C[C@]1(c2nc3c(C(N)=O)cccc3[nH]2)CCCN1 [Veliparib] + C[C@]1(O)C[C@@H](c2nc(-c3ccc4ccc(-c5ccccc5)nc4c3)c3c(N)nccn32)C1 [Linsitinib] (partner 1 µM); test: as above; settings: first compound 0.02 µM
In short: as §1

Cell Line | relative viability
NCI-H1651 | 0.854
COR-L23 | 1.1
HCC-827 | 0.96
LCLC-103H | 1.1
RERF-LC-KJ | 0.894
NCI-H3122 | 1.04
BEN | 0.803
UMC-11 | 1.06
LCLC-97TM1 | 0.185
NCI-H2085 | 0.929
A-427 | 1.21
NCI-H727 | 0.284
NCI-H838 | 1.07
NCI-H1793 | 0.864
201T | 1.08
NCI-H2228 | 0.552
LOU-NH91 | 0.9
NCI-H1666 | 0.93
NCI-H650 | 0.766
NCI-H1993 | 0.7
HCC-44 | 0.665
NCI-H647 | 1.09
NCI-H2126 | 0.715
NCI-H1755 | 1
PC-3 [JPC-3] | 0.929
NCI-H1792 | 0.59
NCI-H2087 | 1.01

same assay, conditions: first compound 0.06325 µM

Cell Line | relative viability
NCI-H1651 | 1.01
COR-L23 | 0.886
HCC-827 | 0.899
LCLC-103H | 0.982
RERF-LC-KJ | 0.787
NCI-H3122 | 1.01
BEN | 0.875
UMC-11 | 1
LCLC-97TM1 | 0.187
NCI-H2085 | 0.871
A-427 | 1.05
NCI-H727 | 0.219
NCI-H838 | 0.981
NCI-H1793 | 0.804
201T | 1.06
NCI-H2228 | 0.601
LOU-NH91 | 0.932
NCI-H1666 | 0.557
NCI-H650 | 0.716
NCI-H1993 | 0.683
HCC-44 | 0.5
NCI-H647 | 1.01
NCI-H2126 | 0.668
NCI-H1755 | 0.972
PC-3 [JPC-3] | 0.921
NCI-H1792 | 0.422
NCI-H2087 | 0.903

same assay, conditions: first compound 0.2 µM

Cell Line | relative viability
NCI-H1651 | 0.984
COR-L23 | 0.9
HCC-827 | 0.816
LCLC-103H | 1.11
RERF-LC-KJ | 0.823
NCI-H3122 | 0.983
BEN | 1.15
UMC-11 | 1.08
LCLC-97TM1 | 0.194
NCI-H2085 | 0.854
A-427 | 1.04
NCI-H727 | 0.253
NCI-H838 | 1.03
NCI-H1793 | 0.956
201T | 0.995
NCI-H2228 | 0.681
LOU-NH91 | 0.971
NCI-H1666 | 0.865
NCI-H650 | 0.864
NCI-H1993 | 0.738
HCC-44 | 0.636
NCI-H647 | 0.989
NCI-H2126 | 0.701
NCI-H1755 | 0.972
PC-3 [JPC-3] | 0.917
NCI-H1792 | 0.535
NCI-H2087 | 1.02

same assay, conditions: first compound 0.6325 µM

Cell Line | relative viability
NCI-H1651 | 0.82
COR-L23 | 0.656
HCC-827 | 0.949
LCLC-103H | 1.01
RERF-LC-KJ | 0.837
NCI-H3122 | 1.04
BEN | 0.928
UMC-11 | 0.963
NCI-H2085 | 0.779
A-427 | 1.03
NCI-H727 | 0.293
NCI-H838 | 0.888
NCI-H1793 | 0.728
201T | 1.02
NCI-H2228 | 0.572
LOU-NH91 | 0.901
NCI-H1666 | 0.671
NCI-H650 | 0.875
NCI-H1993 | 0.7
HCC-44 | 0.622
NCI-H647 | 1.02
NCI-H2126 | 0.661
NCI-H1755 | 0.968
PC-3 [JPC-3] | 0.883
NCI-H1792 | 0.494
NCI-H2087 | 0.898

same assay, conditions: first compound 2 µM

Cell Line | relative viability
NCI-H1651 | 0.805
COR-L23 | 0.816
HCC-827 | 0.939
LCLC-103H | 1.08
RERF-LC-KJ | 0.818
NCI-H3122 | 1.06
BEN | 0.946
UMC-11 | 0.961
LCLC-97TM1 | 0.25
NCI-H2085 | 0.965
A-427 | 1.14
NCI-H727 | 0.24
NCI-H838 | 1.1
NCI-H1793 | 0.828
201T | 1.01
NCI-H2228 | 0.726
LOU-NH91 | 1.02
NCI-H1666 | 0.838
NCI-H650 | 0.448
NCI-H1993 | 0.726
HCC-44 | 0.694
NCI-H647 | 1.09
NCI-H2126 | 0.733
NCI-H1755 | 0.963
PC-3 [JPC-3] | 0.972
NCI-H1792 | 0.543
NCI-H2087 | 0.999
